Measured values from patent US20240124456A1, “AZA-ERGOLINE DERIVATIVE AND PREPARATION METHOD THEREFOR AND APPLICATION THEREOF” (SHANGHAITECH UNIVERSITY, priority 2021, published 2024).

Key:
dopamine D2 receptors [1] = target: T1, dopamine D2 receptors (Homo sapiens (Human), UniProt P14416); assay: Radioligand competition binding, affinity for dopamine D2 receptors ([3H]-Methylspiperone); details: [3H]-Methylspiperone (0.3-0.5 nM), HEK-293T membranes; for Ki: I-1 to 19 n=3, I-20 to 27 single determination; for Affinity pKi ± SEM: n=3
T1 sequence (P14416 whole entry): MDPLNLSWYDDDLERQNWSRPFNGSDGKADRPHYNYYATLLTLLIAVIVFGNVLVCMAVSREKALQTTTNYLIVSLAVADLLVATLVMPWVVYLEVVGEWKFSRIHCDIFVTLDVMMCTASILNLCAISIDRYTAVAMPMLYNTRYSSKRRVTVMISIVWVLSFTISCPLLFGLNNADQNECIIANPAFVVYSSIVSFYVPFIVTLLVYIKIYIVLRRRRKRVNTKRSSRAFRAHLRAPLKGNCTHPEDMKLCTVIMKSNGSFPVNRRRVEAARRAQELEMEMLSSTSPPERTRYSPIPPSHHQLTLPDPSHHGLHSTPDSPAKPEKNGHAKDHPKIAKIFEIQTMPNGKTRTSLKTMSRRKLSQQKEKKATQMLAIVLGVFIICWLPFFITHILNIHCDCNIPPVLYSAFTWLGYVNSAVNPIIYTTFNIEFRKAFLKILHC
Protocol: A 10 cm diameter dish was used for transfection with 10 ng of the dopamine D2 receptors and 40 μL of PEI. After 48 hours, the 10 cm dish was taken out from the cell culture room and the cultured cells had expressed the dopamine D2 receptors. A vacuum pump was used to suck off the culture medium, 3 mL of lysis buffer (50 mM Tris hydrochloric acid buffer, pH 7.4) was added to each well, and the cells were placed in a 4° C. freezer for 10 minutes. After the cells were detached, the cells were transferred to a 15 mL centrifuge tube and centrifuged at 1500 rpm for 5 minutes at 4° C., and the supernatant was discarded. The cell pellet was transferred to a tissue homogenizer, and 3 mL of lysis buffer was added and fully ground until the cells were broken. Then, cell suspension was equally divided into several EP tubes, centrifuged at 4° C. and 12000 rpm for 5 min, and the supernatant was discarded. The precipitate was the cell membrane component containing the dopamine D2 receptors and stored at −80° C.
First, a standard binding buffer (50 mM HEPES, 50 mM NaCl, 5 mM MgCl2, 0.5 mM EDTA, pH 7.4) was added to the cell membrane component containing the dopamine D2 receptors, and the cell membrane was disrupted and resuspended with an electric tissue homogenizer. 30 μL of membrane protein suspension was added to each well of a 96-well plate. Then, 30 μL of different drugs were added to the 96-well plate from left to right to ensure that the final drug concentrations were 10^−5 M, 10^−6 M, 10^−7 M, 10^−8 M, 10^−9 M and 0 M, with two replicates per treatment. Next, 30 μL [^3H]-N-Methylspiperone was added to each well of the 96-well plate, and the plate was incubated for 2 hours at room temperature in the dark. The unbound isotopes were removed by Whatman GF/C filter membrane and vacuum pump, and the isotopes bound to the receptors were detected by MicroBeta isotope liquid scintillation counter.
The affinity of the compounds of the present invention for the dopamine D2 receptors was determined by the method of radioligand competition experiment. In the first step, a cell membrane component containing specific dopamine D2 receptors was prepared. A10 cm dish was used for transfection with 10 ng of the dopamine D2 receptors and 40 μL of PEI. After 48 hours, the 10 cm dish was taken out from the cell culture room and the cultured cells had expressed the dopamine D2 receptors. A vacuum pump was used to suck off the culture medium, 3 mL of lysis buffer was added to each well, and the cells were placed in a 4° C. freezer for 10 minutes. After the cells were detached, the cells were transferred to a 15 mL centrifuge tube and centrifuged at 1500 rpm for 5 minutes at 4° C., and the supernatant was discarded. The cell pellet was transferred to a tissue homogenizer, and 3 mL of lysis buffer was added and fully ground until the cells were broken. Then, cell suspension was equally divided into several EP tubes, centrifuged at 4° C. and 12000 rpm for 5 min, and the supernatant was discarded. The precipitate was the cell membrane component containing the dopamine D2 receptors. […] First, a standard binding buffer was added to the cell membrane component containing the dopamine D2 receptors, and the cell membrane was disrupted and resuspended with an electric tissue homogenizer. 30 μL of membrane protein suspension was added to each well of a 96-well plate. Then, 30 μL of different drugs were added to the 96-well plate from left to right to ensure that the final drug concentrations were 10^−5 M, 10^−6 M, 10^−7 M, 10^−8 M, 10^−9 M and 0 M, with two replicates per treatment. Next, 30 μL [^3H]-Methylspiperone was added to each well of the 96-well plate. The plate was incubated for 2 hours at room temperature in the dark. Detection. The machine reading value reflected the amount of [^3H]-Methylspiperone bound on the membrane, and after further data processing, the affinity Ki value of different compounds for dopamine D2 receptors was obtained.

dopamine D2 receptors [2] = target: T1, dopamine D2 receptors; assay: G protein Gαi1-γ9 dissociation BRET, dopamine D2 receptor functional activity; type: cell-based; details: for Emax: read-out: Gai1 BRET Emax % ± SEM
Protocol: To examine downstream G protein signaling mediated by dopamine D2 receptors, 6 cm dish was used for transfection with 1μg of dopamine D2 receptors, 1μg of Gαi1 fused to seaweed luciferase (Gαi1-Rluc), 1 μg of Gβ3, 1 μg of Gγ9 fused to green fluorescent protein (Gγ9-GFP) and 16 μL of transfection reagent PEI. […] On the third day, the drugs were added for test.
(§1) To examine downstream G-protein signaling pathway mediated by dopamine D2 receptors, on the first day, 6 cm dish was used for transfection with 1μg of dopamine D2 receptors, 1μg of Gαi1 containing C-terminal seaweed luciferase (GGαi1-Rluc), 1 μg of […], 1 μg of Gγ9 containing C-terminal green fluorescent protein (Gγ9-GFP) and 16 μL of PEI. At the same time, in order to examine the downstream f3-arrestin2 signaling pathway mediated by dopamine D2 receptors, on the first day, 6 cm dish was used for transfection with 500 μg of dopamine D2 receptors containing C-terminal seaweed luciferase (D2-Rluc), 500 μg of G protein-coupled receptor kinase 2 (GRK2), 2500 μg of […] containing N-terminal green fluorescent protein (GFP2-ARRB2) and 14 μL of PEI. The next day, the overgrown cells were digested and plated a 96-well plate at the amount of cells contained in a 6 cm culture dish with overgrown cells, and 100 μL of culture medium was added to each well. On the third day, the drugs were added for test. The 96-well plate was taken out from the cell culture room to remove the culture medium, 40 μL of the substrate coelenterazine 400a (final concentration of 5 μM) was added to each well, and then 20 μL of different drugs were added in turn from left to right to ensure that the final concentration of the drugs decreased gradually from bottom to top, and each treatment was repeated twice. Finally, the prepared samples were loaded on machine for test. The machine reading value reflected the intracellular β-arrestin2 on the membrane and the dissociation of G protein trimer. The former indicated the degree of activation of the β-arrestin2 signaling pathway downstream of the dopamine D2 receptors, and the latter indicated the degree of activation of the G protein signaling pathway downstream of the dopamine D2 receptors.

dopamine D2 receptors [3] = target: T1, dopamine D2 receptors; assay: β-arrestin2 recruitment BRET, dopamine D2 receptor functional activity; type: cell-based; details: for Emax: read-out: β-arrestin2 BRET Emax % ± SEM
Protocol: To examine the downstream f3-arrestin2 signaling pathway mediated by dopamine D2 receptors, 6 cm dish was used for transfection with 500 […] of dopamine D2 receptors fused to seaweed luciferase (D2-Rluc), 500 μg of G protein-coupled receptor kinase 2 (GRK2), 2500 μg of β-arrestin2 fused to green fluorescent protein (GFP2-ARRB2) and 14 μL of transfection reagent PEI. The next day, the overgrown cells were digested and plated a 96-well plate at the amount of cells contained in a 6 cm culture dish with overgrown cells, and 100 μL of culture medium was added to each well. On the third day, the drugs were added for test.
as §1

[4] = HEK-293T, I-1 to 19 n=3, I-20 to 27 single determination, read-out: Gai1 BRET EC50
[5] = relative to the endogenous ligand dopamine
[6] = HEK-293T, I-1 to 19 n=3, I-20 to 27 single determination, read-out: β-arrestin2 BRET EC50
[7] = n=3, read-out: β-arrestin2 BRET pEC50 ± SEM (converted)

O=C1CCc2ccc(OCCCN3CCN4c5cccc6[nH]cc(c56)CC4C3)cc2N1 (centres unmarked) [Compound I-7, 7-(3-(4,6,6a,7,9,10-hexahydro-8H-pyrazino[1,2-a]pyrrolo[4,3,2-de]quinolin-8-yl)propoxy)-3,4-dihydroquinolin-2(1H)-one]
Ki (dopamine D2 receptors [1]): 403 nM
Affinity pKi ± SEM (dopamine D2 receptors [1]): (6.40 ± 0.12)
EC50 (dopamine D2 receptors [2]; [4]): 138 nM
Emax (dopamine D2 receptors [2]; [5]): 104%
EC50 (dopamine D2 receptors [3]; [6]): 275 nM
Emax (dopamine D2 receptors [3]; [5]): 97%

O=c1ccc2ccc(OCCCN3CCN4c5cccc6[nH]cc(c56)CC4C3)cc2[nH]1 (centres unmarked) [Compound I-8, 7-(3-(4,6,6a,7,9,10-hexahydro-8H-pyrazino[1,2-a]pyrrolo[4,3,2-de]quinolin-8-yl)propoxy)quinolin-2(1H)-one]
Ki (dopamine D2 receptors [1]): 0.49 nM
Affinity pKi ± SEM (dopamine D2 receptors [1]): (9.31 ± 0.15)
EC50 (dopamine D2 receptors [2]; [4]): 38.9 nM
Emax (dopamine D2 receptors [2]; [5]): 94%
EC50 (dopamine D2 receptors [3]; [6]): 110 nM
Emax (dopamine D2 receptors [3]; [5]): 98%

O=C(N[C@H]1CC[C@H](CCN2CCN3c4cccc5[nH]cc(c45)CC3C2)CC1)N1CCCCC1 (stereo partly drawn) [Compound I-12, N-(4-(2-(4,6,6a,7,9,10-hexahydro-8H-pyrazino[1,2-a]pyrrolo[4,3,2-de]quinolin-8-yl)ethyl)trans-cyclohexyl)piperidine-1-carboxamide]
Ki (dopamine D2 receptors [1]): 27.1 nM
Affinity pKi ± SEM (dopamine D2 receptors [1]): (7.57 ± 0.03)
EC50 (dopamine D2 receptors [2]; [4]): 17.4 nM
Emax (dopamine D2 receptors [2]; [5]): 92%
EC50 (dopamine D2 receptors [3]; [6]): 20.4 nM
Emax (dopamine D2 receptors [3]; [5]): 89%

O=C(N[C@H]1CC[C@H](CCN2CCN3c4cccc5[nH]cc(c45)CC3C2)CC1)c1cc2ccccc2[nH]1 (some centres unmarked) [Compound I-13]
Ki (dopamine D2 receptors [1]): 16.3 nM
Affinity pKi ± SEM (dopamine D2 receptors [1]): (7.79 ± 0.07)
EC50 (dopamine D2 receptors [2]; [4]): 6.74 nM
Gai1 BRET pEC50 ± SEM (dopamine D2 receptors [2]; n=3): 8.17 ± 0.08
Gai1 BRET Emax % ± SEM (dopamine D2 receptors [2]; [5]): 92 ± 3%
EC50 (dopamine D2 receptors [3]; [6]): 146 nM
β-arrestin2 BRET pEC50 ± SEM (dopamine D2 receptors [3]; n=3): 6.84 ± 0.12
β-arrestin2 BRET Emax % ± SEM (dopamine D2 receptors [3]; [5]): 48 ± 8%

O=C(N[C@H]1CC[C@H](CCN2CCN3c4cccc5[nH]cc(c45)CC3C2)CC1)c1ccccc1 (stereo partly drawn) [Compound I-14, N-(4-(2-(4,6,6a,7,9,10-hexahydro-8H-pyrazino[1,2-a]pyrrolo[4,3,2-de]quinolin-8-yl)ethyl)trans-cyclohexyl)benzamide]
Ki (dopamine D2 receptors [1]): 40.7 nM
Affinity pKi ± SEM (dopamine D2 receptors [1]): (7.39 ± 0.05)
EC50 (dopamine D2 receptors [2]; [4]): 1.67 nM
Emax (dopamine D2 receptors [2]; [5]): 72%
EC50 (dopamine D2 receptors [3]; [6]): 27.7 nM
Emax (dopamine D2 receptors [3]; [5]): 41%

O=S(=O)(N[C@H]1CC[C@H](CCN2CCN3c4cccc5[nH]cc(c45)CC3C2)CC1)c1ccccc1 (some centres unmarked) [Compound I-15, N-(4-(2-(4,6,6a,7,9,10-hexahydro-8H-pyrazino[1,2-a]pyrrolo[4,3,2-de]quinolin-8-yl)ethyl)cyclohexyl)phenylsulfonamide]
Ki (dopamine D2 receptors [1]): 77.5 nM
Affinity pKi ± SEM (dopamine D2 receptors [1]): (7.11 ± 0.12)
EC50 (dopamine D2 receptors [2]; [4]): 2.65 nM
Emax (dopamine D2 receptors [2]; [5]): 94%
EC50 (dopamine D2 receptors [3]; [6]): 31.5 nM
Emax (dopamine D2 receptors [3]; [5]): 80%

Cc1nc2n(c(=O)c1CCN1CCN3c4cccc5[nH]cc(c45)CC3C1)CCCC2 (centres unmarked) [Compound I-17, 3-(2-(4,6,6a,7,9,10-hexahydro-8H-pyrazino[1,2-a]pyrrolo[4,3,2-de]quinolin-8-yl)ethyl)-2-methyl-6,7,8,9-tetrahydro-4H-pyrido[1,2-a]pyrimidin-4-one]
Ki (dopamine D2 receptors [1]): 55.8 nM
Affinity pKi ± SEM (dopamine D2 receptors [1]): (7.25 ± 0.12)
EC50 (dopamine D2 receptors [2]; [4]): 32.7 nM
Emax (dopamine D2 receptors [2]; [5]): 61%
EC50 (dopamine D2 receptors [3]; [6]): 202 nM
EC50 (dopamine D2 receptors [3]; [7]): 200 nM
Emax (dopamine D2 receptors [3]; [5]): 38%

Cn1cc2c3c(cccc31)N1CCN(CCCCOc3ccc4ccc(=O)[nH]c4c3)CC1C2 (centres unmarked) [Compound I-18, 7-(4-(4-methyl-4,6,6a,7,9,10-hexahydro-8H-pyrazino[1,2-a]pyrrolo[4,3,2-de]quinolin-8-yl)butoxy)quinolin-2(1H)-one]
Ki (dopamine D2 receptors [1]): 61 nM
Affinity pKi ± SEM (dopamine D2 receptors [1]): (7.22 ± 0.02)
EC50 (dopamine D2 receptors [2]; [4]): 11 nM
Emax (dopamine D2 receptors [2]; [5]): 77%
EC50 (dopamine D2 receptors [3]; [6]): 110 nM
Emax (dopamine D2 receptors [3]; [5]): 50%

CN(C)C(=O)N[C@H]1CC[C@H](CCN2CCN3c4cccc5c4c(cn5C)CC3C2)CC1 (stereo partly drawn) [Compound I-19, 1,1-dimethyl-3-(4-(2-(4-methyl-4,6,6a,7,9,10-hexahydro-8H-pyrazino[1,2-a]pyrrolo[4,3,2-de]quinolin-8-yl)ethyl)trans-cyclohexyl)urea]
Ki (dopamine D2 receptors [1]): 52.7 nM
Affinity pKi ± SEM (dopamine D2 receptors [1]): (7.28 ± 0.15)
EC50 (dopamine D2 receptors [2]; [4]): 4 nM
EC50 (dopamine D2 receptors [2]; n=3, read-out: Gai1 BRET pEC50 ± SEM (converted)): 4.17 nM
Emax (dopamine D2 receptors [2]; [5]): 71%
EC50 (dopamine D2 receptors [3]; [7]): 28.8 nM
Emax (dopamine D2 receptors [3]; [5]): 34%

Cn1cc2c3c(cccc31)N1CCN(C/C=C/COc3ccc4c(c3)NC(=O)CC4)CC1C2 (centres unmarked) [Compound I-22, (E)-7-((4-(4-methyl-4,6,6a,7,9,10-hexahydro-8H-pyrazino[1,2-a]pyrrolo[4,3,2-de]quinolin-8-yl)-2-buten-1-yl)oxy)-3,4-dihydroquinolin-2(1H)-one]
Ki (dopamine D2 receptors [1]): 176 nM
EC50 (dopamine D2 receptors [2]; [4]): 38 nM
Emax (dopamine D2 receptors [2]; [5]): 41%
EC50 (dopamine D2 receptors [3]; [6]): 91.6 nM
Emax (dopamine D2 receptors [3]; [5]): 32%

Cn1cc2c3c(cccc31)N1CCN(C/C=C/COc3ccc4ccc(=O)[nH]c4c3)CC1C2 (centres unmarked) [Compound I-23, (E)-7-((4-(4-methyl-4,6,6a,7,9,10-hexahydro-8H-pyrazino[1,2-a]pyrrolo[4,3,2-de]quinolin-8-yl)-2-buten-1-yl)oxy)quinolin-2(1H)-one]
Ki (dopamine D2 receptors [1]): 100 nM
EC50 (dopamine D2 receptors [2]; [4]): 54.8 nM
Emax (dopamine D2 receptors [2]; [5]): 38%
EC50 (dopamine D2 receptors [3]; [6]): 294 nM
Emax (dopamine D2 receptors [3]; [5]): 36%
